Key:
[1] = Tolerability (body weight change) of 177Lu conjugates; type: in vivo, mouse (athymic Balb/c AnNRj-Foxn1); details: single administration, 250 nmol/kg, 250 MBq/kg
Method: The anti-cancer efficacy of ^177Lu-ESV6, ^177Lu-Bi-ESV6 and ^177Lu-Tri-ESV6 was assessed in athymic Balb/c AnNRj-Foxn1 mice bearing SK-RC-52.hFAP tumor in the right flank. ^177Lu-ESV6, ^177Lu-Bi-ESV6 or ^177Lu-Tri-ESV6 were intravenously administered at a dose of 250 nmol/kg, 250 MBq/kg (single administration on day 9 after tumor implantation). Therapy experiments started when the average volume of established tumors had reached 100-150 mm^3. Body weight of the animals and tumor volume were daily measured and recorded. Tumor dimensions were measured with an electronic caliper and tumor volume was calculated with the formula (long side, mm)×(short side, mm)×(short side, mm)×0.5. Animals were euthanized when one or more termination criterium indicated by the experimental license was reached. Prism 7 software (GraphPad Software) was used for data analysis.

[2] = test system: SK-RC-52.hFAP tumors; assay: Quantitative biodistribution in SK-RC-52.hFAP tumor bearing mice; type: in vivo, mouse (female athymic Balb/c AnNRj-Foxn1); details: i.v. 250 nmol/kg, 50 MBq/kg
Procedure, shortened: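 Female athymic Balb/c nude mice carried subcutaneous SK-RC-52.hFAP tumors (5 million cells, ~300 mm^3). 177Lu-labeled conjugates were given i.v. at 250 nmol/kg, 50 MBq/kg. Tissues gamma-counted at several time points as %ID/g±SD, tumor values corrected for growth rate; tumor-to-organ ratios derived.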

In the case of N#CC1CC(F)(F)CN1C(=O)CNC(=O)c1ccnc2c(NC(=O)CCC(=O)NCCCCC(NC(=O)CCC(=O)Nc3cccc4c(C(=O)NCC(=O)N5CC(F)(F)CC5C#N)ccnc34)C(=O)NCCNC(=O)CCC(C(=O)O)N3CCN(CC(=O)[O-])CCN(CC(=O)[O-])CCN(CC(=O)[O-])CC3)cccc12.[177Lu+3] (stereo not shown) [^177Lu-Bi-ESV6-DOTAGA, reference compound], the “tolerability (body weight change), in words” value [1] is reported as “very well tolerated”, the “Tumor to organs ratio, Blood” value ([2]; 24 h) is reported as 270.81 and the “Injected dose per gram, Blood” value ([2]; 24 h post injection) is reported as 0.05 % ID/g. The “Tumor to organs ratio, Blood” value ([2]; 48 h) was 4240.99, the “Injected dose per gram, Blood” value ([2]; 48 h post injection) was 0.00 % ID/g and the “Tumor to organs ratio, Blood” value ([2]; 72 h) was 2515.44. For the same molecule, the “Injected dose per gram, Blood” value ([2]; 72 h post injection) was 0.00 % ID/g, the “Tumor to organs ratio, Heart” value ([2]; 24 h) was 342.92 and the “Injected dose per gram, Heart” value ([2]; 24 h post injection) was 0.05 % ID/g. The “Tumor to organs ratio, Heart” value ([2]; 48 h) was 1206.24, the “Injected dose per gram, Heart” value ([2]; 48 h post injection) was 0.01 % ID/g and the “Tumor to organs ratio, Heart” value ([2]; 72 h) was 203.58. The “Injected dose per gram, Heart” value ([2]; 72 h post injection) was 0.04 % ID/g, the “Tumor to organs ratio, Intestine” value ([2]; 24 h) was 298.43 and the “Injected dose per gram, Intestine” value ([2]; 24 h post injection) was 0.05 % ID/g. For the same molecule, the “Tumor to organs ratio, Intestine” value ([2]; 48 h) was 458.76, the “Injected dose per gram, Intestine” value ([2]; 48 h post injection) was 0.03 % ID/g and the “Tumor to organs ratio, Intestine” value ([2]; 72 h) was 544.57. For the same molecule, the “Injected dose per gram, Intestine” value ([2]; 72 h post injection) was 0.06 % ID/g, the “Tumor to organs ratio, Kidney” value ([2]; 24 h) was 14.96 and the “Injected dose per gram, Kidney” value ([2]; 24 h post injection) was 0.96 % ID/g. For the same molecule, the “Tumor to organs ratio, Kidney” value ([2]; 48 h) was 17.41, the “Injected dose per gram, Kidney” value ([2]; 48 h post injection) was 0.47 % ID/g and the “Tumor to organs ratio, Kidney” value ([2]; 72 h) was 12.21. The “Injected dose per gram, Kidney” value ([2]; 72 h post injection) was 0.66 % ID/g, the “Tumor to organs ratio, Liver” value ([2]; 24 h) was 48.81 and the “Injected dose per gram, Liver” value ([2]; 24 h post injection) was 0.29 % ID/g. For the same molecule, the “Tumor to organs ratio, Liver” value ([2]; 48 h) was 51.30, the “Injected dose per gram, Liver” value ([2]; 48 h post injection) was 0.16 % ID/g and the “Tumor to organs ratio, Liver” value ([2]; 72 h) was 28.14. For the same molecule, the “Injected dose per gram, Liver” value ([2]; 72 h post injection) was 0.29 % ID/g, the “Tumor to organs ratio, Lung” value ([2]; 24 h) was 184.57 and the “Injected dose per gram, Lung” value ([2]; 24 h post injection) was 0.08 % ID/g. The “Tumor to organs ratio, Lung” value ([2]; 48 h) was 300.13, the “Injected dose per gram, Lung” value ([2]; 48 h post injection) was 0.03 % ID/g and the “Tumor to organs ratio, Lung” value ([2]; 72 h) was 517.13. The “Injected dose per gram, Lung” value ([2]; 72 h post injection) was 0.06 % ID/g, the “Tumor to organs ratio, Muscle” value ([2]; 24 h) was 135.38 and the “Injected dose per gram, Muscle” value ([2]; 24 h post injection) was 0.12 % ID/g. The “Tumor to organs ratio, Muscle” value ([2]; 48 h) was 270.58, the “Injected dose per gram, Muscle” value ([2]; 48 h post injection) was 0.05 % ID/g and the “Tumor to organs ratio, Muscle” value ([2]; 72 h) was 140.83. For the same molecule, the “Injected dose per gram, Muscle” value ([2]; 72 h post injection) was 0.08 % ID/g, the “Tumor to organs ratio, Spleen” value ([2]; 24 h) was 125.34 and the “Injected dose per gram, Spleen” value ([2]; 24 h post injection) was 0.11 % ID/g. For the same molecule, the “Tumor to organs ratio, Spleen” value ([2]; 48 h) was 133.66, the “Injected dose per gram, Spleen” value ([2]; 48 h post injection) was 0.07 % ID/g and the “Tumor to organs ratio, Spleen” value ([2]; 72 h) was 61.08. The “Injected dose per gram, Spleen” value ([2]; 72 h post injection) was 0.14 % ID/g, the “Tumor to organs ratio, Tail” value ([2]; 24 h) was 69.69 and the “Injected dose per gram, Tail” value ([2]; 24 h post injection) was 0.22 % ID/g. The “Tumor to organs ratio, Tail” value ([2]; 48 h) was 187.42, the “Injected dose per gram, Tail” value ([2]; 48 h post injection) was 0.07 % ID/g and the “Tumor to organs ratio, Tail” value ([2]; 72 h) was 64.13. For the same molecule, the “Injected dose per gram, Tail” value ([2]; 72 h post injection) was 0.12 % ID/g, the “Injected dose per gram, Tumor” value ([2]; 24 h post injection) was 14.29 % ID/g and the “Injected dose per gram, Tumor” value ([2]; 48 h post injection) was 8.10 % ID/g. For the same molecule, the “Injected dose per gram, Tumor” value ([2]; 72 h post injection) was 8.00 % ID/g.

With N#C[C@@H]1CC(F)(F)CN1C(=O)CNC(=O)c1ccnc2c(NC(=O)CCC(=O)NCCNC(=O)CCC(C(=O)O)N3CCN(CC(=O)[O-])CCN(CC(=O)[O-])CCN(CC(=O)[O-])CC3)cccc12.[177Lu+3] (stereo partly shown) [^177Lu-ESV6-DOTAGA, reference compound] the “tolerability (body weight change), in words” value [1] was “very well tolerated”, the “Tumor to organs ratio, Blood” value ([2]; 24 h) was 628.54 and the “Injected dose per gram, Blood” value ([2]; 24 h post injection) was 0.00 % ID/g. For the same molecule, the “Tumor to organs ratio, Blood” value ([2]; 48 h) was 2173.00, the “Injected dose per gram, Blood” value ([2]; 48 h post injection) was 0.00 % ID/g and the “Tumor to organs ratio, Heart” value ([2]; 24 h) was 497.97. The “Injected dose per gram, Heart” value ([2]; 24 h post injection) was 0.01 % ID/g, the “Tumor to organs ratio, Heart” value ([2]; 48 h) was 314.15 and the “Injected dose per gram, Heart” value ([2]; 48 h post injection) was 0.00 % ID/g. For the same molecule, the “Tumor to organs ratio, Intestine” value ([2]; 24 h) was 240.54, the “Injected dose per gram, Intestine” value ([2]; 24 h post injection) was 0.01 % ID/g and the “Tumor to organs ratio, Intestine” value ([2]; 48 h) was 232.61. For the same molecule, the “Injected dose per gram, Intestine” value ([2]; 48 h post injection) was 0.01 % ID/g, the “Tumor to organs ratio, Kidney” value ([2]; 24 h) was 5.41 and the “Injected dose per gram, Kidney” value ([2]; 24 h post injection) was 0.47 % ID/g. The “Tumor to organs ratio, Kidney” value ([2]; 48 h) was 4.22, the “Injected dose per gram, Kidney” value ([2]; 48 h post injection) was 0.28 % ID/g and the “Tumor to organs ratio, Liver” value ([2]; 24 h) was 37.66. The “Injected dose per gram, Liver” value ([2]; 24 h post injection) was 0.07 % ID/g, the “Tumor to organs ratio, Liver” value ([2]; 48 h) was 20.54 and the “Injected dose per gram, Liver” value ([2]; 48 h post injection) was 0.06 % ID/g. The “Tumor to organs ratio, Lung” value ([2]; 24 h) was 977.01, the “Injected dose per gram, Lung” value ([2]; 24 h post injection) was 0.01 % ID/g and the “Tumor to organs ratio, Lung” value ([2]; 48 h) was 805.04. For the same molecule, the “Injected dose per gram, Lung” value ([2]; 48 h post injection) was 0.01 % ID/g, the “Tumor to organs ratio, Muscle” value ([2]; 24 h) was 159.12 and the “Injected dose per gram, Muscle” value ([2]; 24 h post injection) was 0.03 % ID/g. For the same molecule, the “Tumor to organs ratio, Muscle” value ([2]; 48 h) was 142.88, the “Injected dose per gram, Muscle” value ([2]; 48 h post injection) was 0.01 % ID/g and the “Tumor to organs ratio, Spleen” value ([2]; 24 h) was 158.68. The “Injected dose per gram, Spleen” value ([2]; 24 h post injection) was 0.03 % ID/g, the “Tumor to organs ratio, Spleen” value ([2]; 48 h) was 503.00 and the “Injected dose per gram, Spleen” value ([2]; 48 h post injection) was 0.01 % ID/g. The “Tumor to organs ratio, Tail” value ([2]; 24 h) was 48.95, the “Injected dose per gram, Tail” value ([2]; 24 h post injection) was 0.05 % ID/g and the “Tumor to organs ratio, Tail” value ([2]; 48 h) was 45.61. For the same molecule, the “Injected dose per gram, Tail” value ([2]; 48 h post injection) was 0.03 % ID/g, the “Injected dose per gram, Tumor” value ([2]; 24 h post injection) was 2.53 % ID/g and the “Injected dose per gram, Tumor” value ([2]; 48 h post injection) was 1.19 % ID/g.

Source: patent US20260364214A1, “MULTIVALENT FIBROBLAST ACTIVATION PROTEIN LIGANDS FOR TARGETED DELIVERY APPLICATIONS” (Philochem AG, priority 2022, published 2026)
